Experiments:
Type in all cases: in vivo
[1] = tested on: strigolactones (4-deoxyorobanchol, orobanchol) content; assay: LC-MS/MS quantification of SLs in rice root tissues; conditions: Pi-starved WT rice, 5 μM, 6 hours
Procedure: (§1) For SL analysis, one-week-old seedlings were transferred into 50 ml falcon tubes (two seedlings per tube), containing half-strength Hoagland nutrient solution with K2HPO4.2H2O (+Pi), and grown in the biochamber for one week. Rice seedlings were then subjected to phosphate deficiency (−Pi) for another one week. On the day of root exudates collection, rice seedlings were first treated with 5 μM Zaxinone, or MZ compounds for 6 h, and then root exudates and root tissues were collected from each tube for LC-MS/MS analysis and Striga bioassays.
For the quantification of SLs in rice root, plant tissue material was lyophilized and grinded. Approximately 20 mg root tissue spiked with 0.672 ng of D6-5-deoxystrigol was extracted with 2 ml of ethyl acetate in an ultrasound bath (Branson 3510 ultrasonic bath) for 15 min, followed by centrifugation for 8 min at 3800 rpm at 4° C. The supernatant was collected and the pellet was re-extracted with 2 ml of ethyl acetate. Then the two supernatants were combined and dried under vacuum. The residue was dissolved in 100 μl of ethyl acetate and 2 ml of hexane. The resulting extract solution was loaded on a Silica gel SPE column (500 mg/3 ml) preconditioned with 3 ml of ethyl acetate and 3 ml of hexane. […] 4-deoxyorobanchol was analyzed by using HPLC-Q-Trap-MS/MS with MRM mode. […]

[2] = tested on: strigolactones (4-deoxyorobanchol, orobanchol) release; assay: LC-MS/MS quantification of SLs in rice root exudates; conditions: 5 μM
Procedure: as §1
For the quantification of SLs in rice root exudates, 50 ml of root exudates spiked with 0.672 ng of D6-5-deoxystrigol, was brought on a 500 mg/3 ml fast SPE C18 column preconditioned with 6 ml of methanol and 3 ml of water. After washing with 3 ml of water, SLs were eluted with 5 ml of acetone. The 4-deoxyorobanchol fraction (acetone-water solution) was concentrated to SL aqueous solution (˜500 μl), followed by the extraction with 1 ml of ethyl acetate. 750 μl of SLs enriched organic phase was then transferred to 1.5 ml tube and evaporated to dryness under vacuum. The dried extract was dissolved in 100 μl of acetonitrile:water (25:75, v:v) and filtered through a 0.22 µm filter for LC-MS/MS analysis.

[3] = tested on: zas mutant and Nipponbare wild-type rice seedlings; assay: Hydroponic rice growth, zas mutant rescue and tillering; conditions: hydroponic system, 2.5 μM
Procedure: For rescuing zas mutant phenotypes and investigating the effect of the compounds MZ3 and MZ5 on different genotypes, one week-old seedlings were grown hydroponically in half-strength modified Hoagland nutrient solution containing K2HPO4.2H2O (+Pi), 2.5 μM and 5 μM zaxinone or compounds (MZ2-MZ5) (dissolved in 0.1% acetone) or the corresponding volume of the solvent (control) for 21 days (i.e. 3 weeks). The solution was changed every other day, adding the chemical at each renewal.

[4] = tested on: tomato plant (c.v. Money maker); assay: Foliar application on tomato plants; conditions: 5 μM foliar application
Procedure: Tomato seeds (c.v. Money maker) were sterilized and pre-germinated on moistened filter paper at 22° C. for 4-5 days, transferred to light for 3-4 days or direct sowed of seeds from fresh tomatoes in soils at 25° C. Most uniform seedlings (10 days old) were selected and transferred to pots. After one week of the transfer, 5 μM compounds were used for foliar application. Each compound was applied three times in a week up to four weeks: 20 mL per pot (spray as runoff) in first 3 weeks, and 40 mL per pot in last 4th week. The plants were grown under normal growth condition (27° C., 70% RH).

COc1ccc(Oc2cccc(/C=C/C(C)=O)c2)cc1 [MZ3, (E)-4-(3-(4-methoxyphenoxy)phenyl)but-3-en-2-one]
Oro content in roots ([1]; control 0.6): 0.1 pgmg-1dry-root-weight
4DO content in roots ([1]; control 2.5): 0.5 pgmg-1dry-root-weight
Oro content in root exudates ([2]; Pi-starved WT rice, 6 hours, control 20): 5 pgmg-1dry-root-weight
4DO content in root exudates ([2]; Pi-starved WT rice, 6 hours, control 25): 10 pgmg-1dry-root-weight
effect on 4-deoxyorobanchol relative to Zaxinone ([2]; roots and root exudates, Pi-starved WT rice, 6 hours): significantly stronger
SL level of the root exudate ([2]; wild-type rice seedlings, Pi-starvation, 6 h, compared with Zaxinone (FIGS. 19, 20A-20B)): obvious effect
SL content in zas mutant (high SL phenotype) ([2]; zas mutant rice roots and root exudates, Pi starvation (FIGS. 11A-11B)): strongly inhibited
root length of wild-type plants relative to zaxinone [3]: more active than zaxinone
plant height, branch, flowers and fruit numbers compared to zaxinone [4]: strongly increased
